Measured values as given in US9695155B2, “Herbicidal substituted pyrimidinyloxy benzene compounds” (E. I. DU PONT DE NEMOURS AND COMPANY, priority 2013, dated 2017).

Assays:
velvetleaf [1] = assay: Test A postemergence; assay type: in vivo, Abutilon theophrasti
Procedure, shortened: (§1)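 Visual 0–100 rating (100 = complete control) taken about 10 d post-treatment relative to untreated checks. Preemergence: directed soil spray on sown loam/sand pots. Postemergence: seedlings 2–10 cm, 1–2 leaf. Non-phytotoxic solvent formulation with surfactant.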

velvetleaf [2] = assay: Test A preemergence; assay type: in vivo, Abutilon theophrasti; conditions: for Velvetleaf plant response rating: 500 g ai/ha
Procedure, shortened: as §1

wheat [3] = assay: Test A postemergence; assay type: in vivo, Triticum aestivum
Procedure, shortened: as §1

corn [4] = assay: Test A preemergence; assay type: in vivo, Zea mays; conditions: for Corn plant response rating: 500 g ai/ha
Procedure, shortened: as §1

giant foxtail [5] = assay: Test A postemergence; assay type: in vivo, Setaria faberii
Procedure, shortened: as §1

rice = assay: Test B flooded paddy test; assay type: in vivo, Oryza sativa; conditions: Flood, 250 g ai/ha; 0 to 100 scale where 0 is no effect and 100 is complete control
Procedure, shortened: (§2)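 Evaluation is visual, against untreated controls, 13 to 15 days after treatment. Before treatment, plants reached the 2-leaf stage; pots were then flooded 3 cm deep, compound was added to the water, and that level was maintained. Ratings run 0 to 100, with 100 meaning complete control.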

barnyardgrass [6] = assay: Test A postemergence; assay type: in vivo, Echinochloa crus-galli
Procedure, shortened: as §1

morningglory [7] = assay: Test A preemergence; assay type: in vivo, Ipomoea spp.; conditions: for Morningglory plant response rating: 500 g ai/ha
Procedure, shortened: as §1

wheat [8] = assay: Test A preemergence; assay type: in vivo, Triticum aestivum; conditions: for Wheat plant response rating: 500 g ai/ha
Procedure, shortened: as §1

corn [9] = assay: Test A postemergence; assay type: in vivo, Zea mays
Procedure, shortened: as §1

sedge, umbrella = assay: Test B flooded paddy test; assay type: in vivo, Cyperus difformis; conditions: Flood, 250 g ai/ha; 0 to 100 scale where 0 is no effect and 100 is complete control
Procedure, shortened: as §2

morningglory [10] = assay: Test A postemergence; assay type: in vivo, Ipomoea spp.
Procedure, shortened: as §1

pigweed [11] = assay: Test A postemergence; assay type: in vivo, Amaranthus retroflexus
Procedure, shortened: as §1

giant foxtail [12] = assay: Test A preemergence; assay type: in vivo, Setaria faberii; conditions: for Foxtail, Giant plant response rating: 500 g ai/ha
Procedure, shortened: as §1

pigweed [13] = assay: Test A preemergence; assay type: in vivo, Amaranthus retroflexus; conditions: for Pigweed plant response rating: 500 g ai/ha
Procedure, shortened: as §1

large (Lg) crabgrass [14] = assay: Test A postemergence; assay type: in vivo, Digitaria sanguinalis
Procedure, shortened: as §1

barnyardgrass [15] = assay: Test B flooded paddy test; assay type: in vivo, Echinochloa crus-galli; conditions: Flood, 250 g ai/ha; 0 to 100 scale where 0 is no effect and 100 is complete control
Procedure, shortened: as §2

barnyardgrass [16] = assay: Test A preemergence; assay type: in vivo, Echinochloa crus-galli; conditions: for Barnyardgrass plant response rating: 500 g ai/ha
Procedure, shortened: as §1

Heteranthera limosa = assay: Test B flooded paddy test; assay type: in vivo; conditions: Flood, 250 g ai/ha; 0 to 100 scale where 0 is no effect and 100 is complete control
Procedure, shortened: as §2

large (Lg) crabgrass [17] = assay: Test A preemergence; assay type: in vivo, Digitaria sanguinalis; conditions: for Crabgrass, Large plant response rating: 500 g ai/ha
Procedure, shortened: as §1

[18] = 125 g ai/ha, 0 to 100 scale where 0 is no effect and 100 is complete control
[19] = 500 g ai/ha, 0 to 100 scale, 0 no effect, 100 complete control
[20] = 0 to 100 scale, 0 no effect, 100 complete control, approx. 10 days
[21] = 125 g ai/ha, 0 to 100 scale, 0 no effect, 100 complete control
[22] = 500 g ai/ha, 0 to 100 scale where 0 is no effect and 100 is complete control
[23] = 0 to 100 scale where 0 is no effect and 100 is complete control

Brc1cnc(Oc2ccccc2-n2ccc(Br)n2)nc1 [Compound 20]
60: Plant response rating, Foxtail, Giant (giant foxtail [5]; [19]) | Plant response rating, Ducksalad (Heteranthera limosa)
45: Plant response rating, Rice (rice)
40: Plant response rating, Morningglory (morningglory [10]; [18]) | Plant response rating, Morningglory (morningglory [10]; [19])
0: Plant response rating, Velvetleaf (velvetleaf [2]; [18]) | Velvetleaf plant response rating (velvetleaf [2]; [20]) | Plant response rating, Wheat (wheat [3]; [18]) | Plant response rating, Corn (corn [4]; [18]) | Corn plant response rating (corn [4]; [20]) | Plant response rating, Foxtail, Giant (giant foxtail [5]; [18]) | Plant response rating, Barnyardgrass (barnyardgrass [6]; [18]) | Plant response rating, Morningglory (morningglory [7]; [18]) | Morningglory plant response rating (morningglory [7]; [20]) | Plant response rating, Wheat (wheat [8]; [18]) | Wheat plant response rating (wheat [8]; [20]) | Plant response rating, Corn (corn [9]; [18]) | Plant response rating, Crabgrass, Large (large (Lg) crabgrass [14]; [18]) | Plant response rating, Barnyardgrass (barnyardgrass [16]; [18])
20: Plant response rating, Velvetleaf (velvetleaf [1]; [18]) | Plant response rating, Wheat (wheat [3]; [19]) | Plant response rating, Foxtail, Giant (giant foxtail [12]; [18]) | Plant response rating, Barnyardgrass (barnyardgrass [15]) | Barnyardgrass plant response rating (barnyardgrass [16]; [20]) | Plant response rating, Crabgrass, Large (large (Lg) crabgrass [17]; [18])
30: Plant response rating, Barnyardgrass (barnyardgrass [6]; [19]) | Plant response rating, Corn (corn [9]; [19]) | Plant response rating, Pigweed (pigweed [13]; [18]) | Plant response rating, Crabgrass, Large (large (Lg) crabgrass [14]; [19])
100: Plant response rating, Pigweed (pigweed [11]; [19])
75: Plant response rating, Sedge, Umbrella (sedge, umbrella)
80: Plant response rating, Pigweed (pigweed [11]; [18]) | Foxtail, Giant plant response rating (giant foxtail [12]; [20])
70: Plant response rating, Velvetleaf (velvetleaf [1]; [19])
90: Pigweed plant response rating (pigweed [13]; [20]) | Crabgrass, Large plant response rating (large (Lg) crabgrass [17]; [20])

NN=Cc1cccc(Oc2ncc(Cl)cn2)c1-n1cc(Br)cn1 [Compound 288]
20: Plant response rating, Velvetleaf (velvetleaf [1]; [21]) | Plant response rating, Foxtail, Giant (giant foxtail [5]; [22]) | Plant response rating, Morningglory (morningglory [10]; [21]) | Pigweed plant response rating (0 to 100 scale) (pigweed [13]; 125 g ai/ha) | Plant response rating, Crabgrass, Large (large (Lg) crabgrass [14]; [22])
10: Velvetleaf plant response rating (velvetleaf [2]; [23]) | Plant response rating, Foxtail, Giant (giant foxtail [5]; [21]) | Plant response rating, Barnyardgrass (barnyardgrass [6]; [22]) | Plant response rating, Corn (corn [9]; [22]) | Plant response rating, Crabgrass, Large (large (Lg) crabgrass [14]; [21]) | Barnyardgrass plant response rating (barnyardgrass [16]; [23]) | Crabgrass, Large plant response rating (large (Lg) crabgrass [17]; [23])
90: Plant response rating, Pigweed (pigweed [11]; [21]) | Pigweed plant response rating (pigweed [13]; [23])
0: Velvetleaf plant response rating (0 to 100 scale) (velvetleaf [2]; 125 g ai/ha) | Plant response rating, Wheat (wheat [3]; [21]) | Plant response rating, Wheat (wheat [3]; [22]) | Corn plant response rating (0 to 100 scale) (corn [4]; 125 g ai/ha) | Corn plant response rating (corn [4]; [23]) | Plant response rating, Rice (rice) | Plant response rating, Barnyardgrass (barnyardgrass [6]; [21]) | Morningglory plant response rating (0 to 100 scale) (morningglory [7]; 125 g ai/ha) | Morningglory plant response rating (morningglory [7]; [23]) | Wheat plant response rating (0 to 100 scale) (wheat [8]; 125 g ai/ha) | Wheat plant response rating (wheat [8]; [23]) | Plant response rating, Corn (corn [9]; [21]) | Plant response rating, Sedge, Umbrella (sedge, umbrella) | Foxtail, Giant plant response rating (0 to 100 scale) (giant foxtail [12]; 125 g ai/ha) | Foxtail, Giant plant response rating (giant foxtail [12]; [23]) | Plant response rating, Barnyardgrass (barnyardgrass [15]) | Barnyardgrass plant response rating (0 to 100 scale, 0 is no effect, 100 is complete control) (barnyardgrass [16]; 125 g ai/ha) | Plant response rating, Ducksalad (Heteranthera limosa) | Crabgrass, Large plant response rating (0 to 100 scale) (large (Lg) crabgrass [17]; 125 g ai/ha)
30: Plant response rating, Velvetleaf (velvetleaf [1]; [22])
100: Plant response rating, Pigweed (pigweed [11]; [22])
40: Plant response rating, Morningglory (morningglory [10]; [22])

N#Cc1cccc(Oc2ncc(C(F)(F)F)cn2)c1-n1cc(Br)cn1 [Compound 113]
30: Morningglory plant response rating (morningglory [7]; [20]) | Plant response rating, Morningglory (morningglory [10]; [22])
100: Plant response rating, Pigweed (pigweed [13]; [18]) | Pigweed plant response rating (pigweed [13]; [20]) | Crabgrass, Large plant response rating (large (Lg) crabgrass [17]; [20])
0: Plant response rating, Corn (corn [4]; [18]) | Plant response rating, Rice (rice) | Plant response rating, Barnyardgrass (barnyardgrass [6]; [18]) | Plant response rating, Morningglory (morningglory [7]; [18]) | Plant response rating, Wheat (wheat [8]; [18]) | Plant response rating, Sedge, Umbrella (sedge, umbrella) | Plant response rating, Barnyardgrass (barnyardgrass [15]) | Plant response rating, Barnyardgrass (barnyardgrass [16]; [18]) | Plant response rating, Ducksalad (Heteranthera limosa)
20: Corn plant response rating (corn [4]; [20]) | Plant response rating, Foxtail, Giant (giant foxtail [12]; [18]) | Plant response rating, Crabgrass, Large (large (Lg) crabgrass [14]; [18])
60: Plant response rating, Wheat (wheat [3]; [22]) | Plant response rating, Foxtail, Giant (giant foxtail [5]; [22]) | Plant response rating, Corn (corn [9]; [22])
10: Plant response rating, Velvetleaf (velvetleaf [2]; [18]) | Plant response rating, Foxtail, Giant (giant foxtail [5]; [18]) | Plant response rating, Corn (corn [9]; [18])
80: Plant response rating, Velvetleaf (velvetleaf [1]; [22]) | Plant response rating, Barnyardgrass (barnyardgrass [6]; [22]) | Plant response rating, Pigweed (pigweed [11]; [22]) | Plant response rating, Crabgrass, Large (large (Lg) crabgrass [17]; [18])
70: Plant response rating, Crabgrass, Large (large (Lg) crabgrass [14]; [22])
90: Foxtail, Giant plant response rating (giant foxtail [12]; [20]) | Barnyardgrass plant response rating (barnyardgrass [16]; [20])
